Assays:
[1] = system: GDH; settings: reference 43; cited from earlier work
[2] = system: glucose dehydrogenase (GDH); test: Inhibition of GDH-driven NADH production read out on the paper-based AuNP device; assay type: biochemical, Pseudomonas sp.
Protocol: (§1) To test the inhibitory effects of Hg(II), different concentrations of Hg(II) was incubated with 0.1 U GDH for 10 min in the presence of 10 mM of glucose and 0.1 M of phosphate buffer solution (pH 7.4) at 25 ° C., then 6 mM of NAD' was added to initiate the enzymatic reaction for […]. The kinetics of the reaction was monitored for the first 6 minutes in a microplate reader to calculate the enzyme's activity. 10 μL of the enzymatic reaction solution were added to 90 μL of 400 μM Au^3+-CTAB solution, and 25 μL of this solution was applied to the device test zone.
The colorimetric results were visualized after 4 minutes and evaluated for the inhibitory effects of these metals by measuring the decrease in the color intensity produced by the enzyme-substrate reaction. Ag(I) and Pb(II) were also tested as potential inhibitors in a similar fashion. Intensity analysis was performed using the ImageJ software.
Clearly, the GDH inhibition and AuNPs dissolution was increased with increasing Hg(II) concentration, with complete dissolution of AuNPs in the testing zone at a Hg(II) ion concentration of 100 μM (FIG. 6B, Hg(II)).
(§2) The resulting solution was then added into a 400 μM of Au^3+-CTAB solution, and 25 μL of this mixture were immediately applied to the testing zone. In the absence of Hg(II), GDH fully converted NAD^+ into NADH after 4 minutes, completely inhibiting AuNP dissolution and leaving the testing zone dark red (FIG. 17A). […] GDH-mediated production of NADH decreased in parallel with the increase of Hg(II) concentration, yielding a lighter readout as increased dissolution of AuNPs occurred (FIG. 17A). […] The color intensity was measured with the ImageJ software and the normalized intensity with different concentrations of Hg(II) was plotted (FIG. 17B). The kinetics of GDH in homogeneous solution was also monitored with or without Hg(II) ions (FIG. 18). Enzyme activity was calculated based on the kinetics of the enzymatic reaction and defined as 100% in the absence of Hg(II).

[3] = molecular target: glucose dehydrogenase (GDH); test: GDH activity in homogeneous solution, absorbance change at 340 nm; assay type: biochemical, Pseudomonas sp.; settings: Hg(II) 0-200 μM, activity 100% without Hg(II), read-out: IC50 for inhibition of GDH in homogeneous solution
Protocol: The absorbance change at 340 nm was monitored to calculate enzyme activity. Hg(II) concentrations being tested ranged from 0-200 μM. The enzyme's activity was defined as 100% in the absence of the Hg(II) ion, and as the Hg(II) concentration increased the enzyme's activity decreased.
as §1, with “10 μL of the enzymatic reaction solution were added to 90 μL of 400 μM Au^3+-CTAB solution, and 25 μL of this solution was applied to the device test zone.” left out
as §2, with “zone.” for “zone. In the absence of Hg(II), GDH fully converted NAD^+ into NADH after 4 minutes, completely inhibiting AuNP dissolution and leaving the testing zone dark red (FIG. 17A).”

O=[N+]([O-])[O-].[Ag+] [Ag(I), silver nitrate]
inhibitory effect on GDH (literature) [1]: strong inhibitors | activity of GDH ([2]; 20 μM or higher of the ion, completely white readout): completely inhibited

CC(=O)[O-].CC(=O)[O-].[Hg+2] [Hg(II), mercury(II) acetate]
inhibitory effect on GDH (literature) [1]: strong inhibitors | enzyme activity ([2]; 2.5 μM of the ion, small decrease of color intensity): slightly inhibited | inhibition of AuNPs dissolution ([2]; 20 μM of the ion): approximately 30% | GDH activity ([2]; 20 μM of the ion, light pink color): significantly inhibited | inhibition of GDH ([2]; 100 μM of the ion, completely white readout, complete dissolution of AuNPs): complete inhibition | IC50 ([2]; 0.1 U GDH, 0-200 μM Hg(II), 400 μM Au3+-CTAB, 4-min reaction, ImageJ intensity): 20 µM | IC50 [3]: 18 µM

lead(II) acetate trihydrate [Pb(II)]
inhibitory effect on GDH (literature) [1]: no inhibitory effect | inhibitory effect on GDH ([2]; 20 to 100 μM of the ion, no dissolution of AuNPs observed): no inhibitory effect
